Consider ten molecules from PubChem BioAssay (NCI).

Experiment in all cases: growth of human tumour cells (NCI), 48 h
Assay [1] concerns KM12 colon.
For assay [2], the system named is NCI-H23 lung.
In assay [3] the test system is ACHN renal.
Assay [4] relates to HCT-116 colon.
The subject of assay [5] is SF-539 CNS.
The subject of assay [6] is HT29 colon.
For assay [7], the system named is EKVX NSCLC.
For assay [8], the system named is SK-MEL-28 melanoma.
Assay [9] has as its system HCC-2998 colon.
Assay [10] has as its system IGROV1 ovarian.

Molecules are shown by their SMILES.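 Cultured in 96-well plates, cells were exposed to test compound for 48 hours across five concentrations. GI50 is the concentration that inhibits growth by half. At the TGI there is no net growth.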

On to `Nc1ccc(N)c2c1C(=O)c1cccc([N+](=O)[O-])c1C2=O`, for which the GI50 is 4.15 µM in assay [1]; 0.44 µM in [2]; 1.93 µM in assay [3]; 2.73 µM in [4]; 1.92 µM in assay [5]; 5.6 µM in assay [6]. Besides, the GI50 in [7] was 7.72 µM; in assay [8] it was 11.5 µM; in assay [9] it was 0.373 µM; in assay [10], 3.92 µM. In addition, the TGI in [1] was over 100 µM; in assay [2], 2.73 µM; in [3] it was over 100 µM; in assay [4], over 48.2 µM; in assay [5], over 22.4 µM; in assay [6], over 100 µM. Also, the TGI was over 100 µM in assay [7], over 100 µM in assay [8], 1.49 µM in assay [9] and over 100 µM in assay [10].

Turning to `O=C(COC(=O)[C@H](C[Se][Se]C[C@H](NC(=O)c1ccc(Br)cc1F)C(=O)OCC(=O)c1ccc(F)cc1)NC(=O)c1ccc(Br)cc1F)c1ccc(F)cc1`, the GI50 was 0.301 µM in [1]; 0.692 µM in assay [2]; 1.65 µM in assay [3]; 1.02 µM in [4]; 0.684 µM in [5]; 0.916 µM in assay [6]. In addition, the GI50 is 0.517 µM in [7], 0.631 µM in assay [8], 1.39 µM in [9] and 1.35 µM in [10]. Besides, the TGI is 0.793 µM in assay [1]; 2.7 µM in assay [2]; 4.18 µM in [3]; 3.52 µM in assay [4]; 1.8 µM in assay [5]; over 58.7 µM in assay [6]. In addition, the TGI worked out at 1.52 µM in assay [7], 1.63 µM in [8], 3.56 µM in assay [9] and 3 µM in [10].

Consider `CCn1c(SC)nnc1-c1cc2c([nH]c3ccccc32)c(-c2cccc(O)c2)n1`, for which the GI50 is 3 µM in assay [1]; 4.51 µM in [2]; 2.12 µM in assay [3]; 2.5 µM in [4]; 1.46 µM in assay [5]; 3.41 µM in assay [6]. The GI50 was 3.02 µM in assay [7], 2.69 µM in assay [8], 4.94 µM in [9] and 2.57 µM in assay [10]. The TGI in assay [1] worked out at 44.7 µM; in assay [2], 50.6 µM; in assay [3] it was 6.47 µM; in [4], 14 µM; in assay [5], 3.74 µM; in assay [6], 12.5 µM. The TGI was determined as 26.2 µM in assay [7], 21 µM in assay [8], 62.3 µM in assay [9] and 52 µM in assay [10].

Turning to `CN1C/C(=C\c2ccco2)c2nc(N)nc(-c3ccco3)c2C1`, the TGI in assay [1], in assay [2], in [3], in assay [4], in assay [5] and in [6] was over 100 µM throughout. Besides, the TGI in assay [7], in assay [8], in assay [9] and in [10] was over 100 µM throughout.

Turning to `CCCCCCCCCCCCCCCC(=O)NCC(OCC)OCC`, the TGI in assay [1], in assay [2], in [3], in [4], in assay [5] and in assay [6] was over 100 µM each time. In addition, the TGI in assay [7], in [8], in assay [9] and in [10] was over 100 µM each time.

Regarding `Cc1[nH]n(C(=O)c2ccc(Cl)cc2)c(=O)c1/C=C1\C(O)=CC(=O)c2ccccc21`, the TGI in assay [1], in assay [2], in assay [3], in assay [4], in [5] and in [6] was over 100 µM each time. Besides, the TGI in assay [7], in assay [8], in [9] and in assay [10] was over 100 µM in each case.

Consider `Nc1nc(N)c(-c2ccccc2)c(C(=O)Nc2nccs2)n1`, for which the TGI in assay [1], in assay [2], in [3], in assay [4], in assay [5] and in assay [6] was over 100 µM each time. For the same molecule, the TGI in assay [7], in [8], in assay [9] and in assay [10] was over 100 µM throughout.

As to `CN1CCN(Cc2ccc(NC(=O)c3cncc(C#Cc4cnc5cccnn45)c3)cc2C(F)(F)F)CC1`, the GI50 was 0.00863 µM in [1]; 0.892 µM in assay [2]; 1.43 µM in assay [3]; 0.711 µM in assay [4]; 0.558 µM in assay [5]; 0.963 µM in assay [6]. Moreover, the GI50 is 1.19 µM in [7], 1.3 µM in [8], 1.31 µM in [9] and 1.3 µM in assay [10]. Also, the TGI in [1] is 2.41 µM; in assay [2] it was 2.32 µM; in assay [3] it was 4.9 µM; in [4], 6.04 µM; in [5] it was 1.33 µM; in assay [6] it was 5.1 µM. In addition, the TGI in assay [7] was determined as 3.49 µM; in [8] it was 4.63 µM; in [9], 4.24 µM; in assay [10] it was 5.59 µM.

Turning to `O=C(Nc1cccc(C(F)(F)F)c1)Nc1cc(S(=O)(=O)NC2CC2)ccc1-c1ccsc1`, the GI50 is 4.46 µM in assay [1]; 4.03 µM in assay [2]; 1.83 µM in assay [3]; 3.51 µM in assay [4]; 4.22 µM in [5]; 4.25 µM in assay [6]. Moreover, the GI50 in [7] was 2.45 µM; in assay [8], 5.1 µM; in assay [9], 6.15 µM; in assay [10], 7.18 µM. The TGI in [1] stood at 16.1 µM; in [2] it was 16.6 µM; in assay [3], 3.61 µM; in [4], 13.4 µM; in assay [5], 16.4 µM; in assay [6] it was 16.1 µM. Moreover, the TGI came to 12.2 µM in assay [7], 18.5 µM in [8], 19.8 µM in [9] and 25.4 µM in assay [10].

Turning to `CCOC(=O)c1c(/C=N\Nc2ccccc2)nc2ccccc2c1-c1ccccc1`, the TGI in assay [1], in assay [2], in assay [3], in [4], in [5] and in [6] was over 100 µM throughout. The TGI in assay [7] is over 100 µM; in [8] it was over 100 µM; in [9], 77 µM; in assay [10], over 100 µM.
